Laboratory results: US20120245137A1 (Zalicus Pharmaceuticals Ltd., priority 2009, published 2012)
Like-named read-outs stand apart in the source and are kept apart here.

Columns and labels:
Format in all cases: cell-based
[1] = target: N-type calcium channel subunits (α1B, α2δ, and β3a) (Homo sapiens, UniProt Q00975); assay: Block of Cav2.2 channel, whole cell voltage clamp, manual and PatchXpress; settings: Table 5; table follows Assay Example 3 (whole cell voltage clamp / PatchXpress); assay not given
Description: Cells are grown either on poly-D-lysine coated coverglass (manual EP) or in TIS culture plates (PatchXpress). For the PatchExpress, cells are released from the flask using trypsin. In both cases, the […] solution is (in mM): 130 […], 10 EGTA, 10 HEPES, 2 MgCl2, 3 MgATP, pH 7.3 with CsOH.
Microelectrodes are fabricated from borosilicate glass and fire-polished. […] The reference electrode is a silver-silver chloride pellet. Voltages are not corrected for the liquid junction potential between the internal and external solutions and leak is subtracted using the P/n procedure. Solutions are applied to cells by bath perfusion via gravity. The experimental chamber volume is—0.2 mL. and the perfusion rate is 0.5-2 mL/min. Flow of suction through the chamber is maintained at all times. Measurement of current amplitudes is performed with […] software (HEKA Elektronik).
PatchXpress (Molecular Devices) is a 16-well whole-cell automated patch clamp device that operates asynchronously with fully integrated fluidics. […] Capacitance and series resistance compensation is automated. No correction for liquid junction potentials is employed. Leak is subtracted using the P/n procedure. Compounds are added to cells with a pipettor from a 96-well compound plate. Voltage protocols and the recording of membrane currents are performed using the PatchXpress software/hardware system. Current amplitudes are calculated with DataXpress software.
In both manual and automated patch clamp, cells are voltage clamped at […] or −90 m V and 50 ms pulses to +20 mV are applied every 15 sec (0.067 Hz). Compounds are added in escalating doses to measure % inhibition. Percent inhibition is calculated from the ratio of the curerent amplitude in the presence and absence of compound. When multiple doses are achieved per cell, IC50 values are calculated.

[2] = target: T-type calcium channel (Homo sapiens, UniProt O95180); assay: T-type channel blocking, FLIPR data (Table 6); settings: for CAv3.2 IC50 Ratio closed/inact.: CAv3.2, ratio closed/inactivated IC50
Chain of T-type calcium channel (O95180 whole entry): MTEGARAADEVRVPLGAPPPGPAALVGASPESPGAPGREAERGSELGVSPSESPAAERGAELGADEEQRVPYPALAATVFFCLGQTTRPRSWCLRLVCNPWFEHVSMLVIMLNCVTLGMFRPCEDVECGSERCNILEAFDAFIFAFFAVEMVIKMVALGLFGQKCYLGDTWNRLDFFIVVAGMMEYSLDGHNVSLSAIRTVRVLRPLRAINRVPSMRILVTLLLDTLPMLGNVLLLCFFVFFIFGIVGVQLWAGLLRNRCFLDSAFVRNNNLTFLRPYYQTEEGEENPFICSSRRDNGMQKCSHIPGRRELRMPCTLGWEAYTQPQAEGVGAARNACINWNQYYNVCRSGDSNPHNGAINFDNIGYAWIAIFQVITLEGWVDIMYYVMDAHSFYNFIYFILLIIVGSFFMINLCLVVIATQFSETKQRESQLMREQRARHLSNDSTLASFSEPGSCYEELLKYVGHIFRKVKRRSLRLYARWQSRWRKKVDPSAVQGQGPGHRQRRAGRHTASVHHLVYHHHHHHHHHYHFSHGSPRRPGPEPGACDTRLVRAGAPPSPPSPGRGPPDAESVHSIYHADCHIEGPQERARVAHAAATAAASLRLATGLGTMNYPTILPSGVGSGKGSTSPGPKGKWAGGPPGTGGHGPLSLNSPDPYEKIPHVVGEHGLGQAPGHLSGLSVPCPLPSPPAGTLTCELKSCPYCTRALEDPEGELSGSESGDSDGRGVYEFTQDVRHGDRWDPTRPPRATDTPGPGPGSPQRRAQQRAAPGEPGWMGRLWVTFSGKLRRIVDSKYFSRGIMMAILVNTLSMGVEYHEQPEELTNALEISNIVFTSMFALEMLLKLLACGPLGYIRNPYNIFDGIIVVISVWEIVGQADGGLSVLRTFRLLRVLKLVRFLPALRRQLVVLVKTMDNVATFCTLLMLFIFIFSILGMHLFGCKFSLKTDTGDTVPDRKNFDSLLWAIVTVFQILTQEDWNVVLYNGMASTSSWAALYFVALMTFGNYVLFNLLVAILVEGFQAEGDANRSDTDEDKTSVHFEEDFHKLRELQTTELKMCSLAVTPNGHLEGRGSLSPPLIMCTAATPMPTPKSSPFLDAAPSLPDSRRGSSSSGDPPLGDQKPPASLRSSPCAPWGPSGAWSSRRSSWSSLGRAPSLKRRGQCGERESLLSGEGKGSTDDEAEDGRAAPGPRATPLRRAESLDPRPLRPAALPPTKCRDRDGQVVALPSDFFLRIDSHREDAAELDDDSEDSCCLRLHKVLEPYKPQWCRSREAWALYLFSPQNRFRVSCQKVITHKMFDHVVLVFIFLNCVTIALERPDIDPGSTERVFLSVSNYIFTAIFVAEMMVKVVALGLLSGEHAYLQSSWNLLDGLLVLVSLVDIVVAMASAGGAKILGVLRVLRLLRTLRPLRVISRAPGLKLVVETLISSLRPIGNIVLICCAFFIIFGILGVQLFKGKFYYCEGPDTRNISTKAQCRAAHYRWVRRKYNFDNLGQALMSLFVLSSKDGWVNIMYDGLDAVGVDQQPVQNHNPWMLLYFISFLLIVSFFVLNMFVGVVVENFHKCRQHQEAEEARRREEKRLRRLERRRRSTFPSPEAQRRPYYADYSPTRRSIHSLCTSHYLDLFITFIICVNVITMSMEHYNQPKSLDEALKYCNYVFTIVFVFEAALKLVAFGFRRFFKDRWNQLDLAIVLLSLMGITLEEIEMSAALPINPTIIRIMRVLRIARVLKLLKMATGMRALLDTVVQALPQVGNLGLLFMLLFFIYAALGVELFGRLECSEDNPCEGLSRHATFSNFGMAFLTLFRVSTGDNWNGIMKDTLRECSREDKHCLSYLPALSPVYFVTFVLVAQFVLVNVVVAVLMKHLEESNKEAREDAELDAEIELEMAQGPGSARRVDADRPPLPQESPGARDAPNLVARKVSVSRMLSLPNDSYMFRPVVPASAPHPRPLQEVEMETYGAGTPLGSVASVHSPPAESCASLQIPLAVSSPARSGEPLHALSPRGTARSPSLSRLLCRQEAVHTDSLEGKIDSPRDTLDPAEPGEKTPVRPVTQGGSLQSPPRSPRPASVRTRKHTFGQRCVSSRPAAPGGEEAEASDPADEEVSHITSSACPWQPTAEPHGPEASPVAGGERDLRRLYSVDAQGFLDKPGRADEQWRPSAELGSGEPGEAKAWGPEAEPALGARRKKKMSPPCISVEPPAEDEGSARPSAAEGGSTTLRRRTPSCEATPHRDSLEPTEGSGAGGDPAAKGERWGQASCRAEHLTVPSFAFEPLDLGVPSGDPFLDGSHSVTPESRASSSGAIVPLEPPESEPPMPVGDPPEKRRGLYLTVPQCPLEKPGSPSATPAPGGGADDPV
Excerpt: Another method, high-throughput spectrophotometric assay, utilizes loading of the cell lines with a fluorescent dye sensitive to intracellular calcium concentration and subsequent examination of the effects of compounds on the ability of depolarization by potassium chloride or other means to alter intracellular calcium levels.

[3] = target: Human Cav 2.2 channels (Homo sapiens, UniProt Q00975); assay: Fluorescent assay for CaV2.2 channels using potassium depolarization (VIPR/FLIPR); settings: FLIPR data; for CAv2.2 IC50 Ratio closed/inact.: ratio closed/inactivated IC50
Excerpt: Human Cav 2.2 channels were stably expressed in HEK293 cells along with alpha2-delta and beta subunits of voltage-gated calcium channels. An inwardly rectifying potassium channel (Kir2.3) was also expressed in these cells to allow more precise control of the cell membrane potential by extracellular potassium concentration. At low bath potassium concentration, the membrane potential is relatively negative, and is depolarized as the bath potassium concentration is raised. In this way, the bath potassium concentration can be used to regulate the voltage-dependent conformations of the channels. […] After the incubation period, Cav2.2 channel opening is triggered by addition of higher concentration of potassium (70 mM final concentration) to further depolarize the cell. The degree of state-dependent block can be estimated from the inhibitory potency of compounds after incubation in different potassium concentrations.
Calcium influx through Cav 2.2 channels is determined using a calcium sensitive fluorescent dye in combination with a fluorescent plate reader. Fluorescent changes were measured with either a VIPR (Aurora Instruments) or FLIPR (Molecular Devices) plate reader.
1. Seed cells in Poly-D-Lysine Coated 96 or 384-well plate and keep in a 3rC-IO % C02 incubator overnight.
2. Remove media, wash cells with 0.2 mL (96-well plate) or 0.05 mL (384-well plate) Dulbecco's Phosphate Buffered Saline (D-PBS) with calcium & magnesium (Invitrogen; 14040).
3. Add 0.1 mL (96-well plate) or 0.05 mL (384-well plate) of 4˜M fluor-4 (Molecular Probes; F-14202) and 0.02% Pluronic acid (Molecular Probes; P-3(00) prepared in D-PBS with calcium & magnesium (Invitrogen; 14040) supplemented with 10 mM Glucose & 10 mM HepeslNaOH; pH 7.4.
4. Incubate in the dark at 25° C. for 60-70 min.
5. Remove dye, wash cells with 0.1 mL (96-well plate) or 0.06 mL (384-well plate) of 4, 12, 25, or 30 mM Potassium Pre-polarization Buffer (PPB).
6. Add 0.1 mL (96-well plate) or 0.03 mL (384-well plate) of 4, 12, 25, 30 mM PPB with or without test compound.
7. Incubate in the dark at 25° C. for 30 min
8. Read cell plate on VIPR instrument, Excitation=480 nm, Emission=535 nm.
9. With VIPR continuously reading, add 0.1 mL (96-well plate) or 0.03 mL (384-well plate) of Depolarization Buffer (DB), which is 2× the final assay concentration, to the cell plate.

[4] = target: CAv1.2 (Homo sapiens, UniProt Q13936); assay: FLIPR data, CAv1.2 channel blocking (Table 6)
[5] = CAv3.2, closed state, read-out: CAv3.2 IC50 Closed
[6] = CAv3.2, inactivated state, read-out: CAv3.2 IC50 Inact.
[7] = closed state, read-out: CAv2.2 IC50 Closed
[8] = inactivated state, read-out: CAv2.2 IC50 Inact.
[9] = closed state, read-out: CAv1.2 IC50 Closed
[10] = inactivated state, read-out: CAv1.2 IC50 Inact.

N[C@@H]1CCCC[C@H]1C(=O)N[C@H]1CC[C@@](F)(S(=O)(=O)c2cccc(C(F)(F)F)c2)CC1 [Compound 284, (1R,2R)-2-amino-N-((1S,4S)-4-fluoro-4-(3-(trifluoromethyl)phenylsulfonyl)cyclohexyl) cyclohexanecarboxamide]
IC50 [1]: 1050 nM

O=C(N[C@H]1CC[C@H](S(=O)(=O)c2cccc(C(F)(F)F)c2)CC1)C1CCOCC1 [Compound 63, N-((1R,4R)-4-(3-(trifluoromethyl)phenylsulfonyl)cyclohexyl)tetrahydro-2H-pyran-4-carboxamide]
IC50 [1]: 9980 nM

2-fluoro-N-((1R,4R)-4-(3- (trifluoromethyl)phenylsulfonyl) cyclohexyl)isonicotinamide [Compound 188]
IC50 [1]: 5610 nM

CCN(CC)C(=O)CN[C@H]1CC[C@H](S(=O)(=O)c2cccc(C(F)(F)F)c2)CC1 [Compound 71, N,N-diethyl-2-((1R,4R)-4-(3-(trifluoromethyl)phenylsulfonyl)cyclohexylamino)acetamide]
IC50 [1]: 5870 nM

2-chloro-6-(trifluoromethyl)-N- ((1S,4S)-4-(3- (trifluoromethyl)phenylsulfonyl) cyclohexyl)nicotinamide [Compound 200]
IC50 [1]: 1020 nM

CC(C)(C[C@H]1C[C@H](NC(=O)CC2(N)CCCCC2)C1)S(=O)(=O)c1cccc(C(F)(F)F)c1 [Compound 726]
IC50 [2, 5]: ≥ 10 µM
IC50 [2, 6]: 10 µM
CAv3.2 IC50 Ratio closed/inact. [2]: 1
IC50 [3, 7]: 2.77 µM
IC50 [3, 8]: 0.9 µM
CAv2.2 IC50 Ratio closed/inact. [3]: 3.1
IC50 [4, 9]: ≥ 10 µM
IC50 [4, 10]: ≥ 10 µM

CC(C)([C@H]1C[C@@H](NC(=O)c2ccc(C(F)(F)F)cc2S(C)(=O)=O)C1)S(=O)(=O)c1cc(F)cc(C(F)(F)F)c1 [Compound 585]
IC50 [2, 5]: ≥ 10 µM
IC50 [2, 6]: 10 µM
CAv3.2 IC50 Ratio closed/inact. [2]: 1
IC50 [3, 7]: 10 µM
IC50 [3, 8]: 1.08 µM
CAv2.2 IC50 Ratio closed/inact. [3]: 9.3
IC50 [4, 10]: ≥ 10 µM

CC(C)([C@H]1C[C@@H](NC(=O)c2ccnc(C(F)(F)F)n2)C1)S(=O)(=O)c1cc(F)cc(C(F)(F)F)c1 [Compound 588]
IC50 [2, 5]: ≥ 10 µM
IC50 [2, 6]: 3.27 µM
CAv3.2 IC50 Ratio closed/inact. [2]: 3.1
IC50 [3, 7]: 5.86 µM
IC50 [3, 8]: 0.95 µM
CAv2.2 IC50 Ratio closed/inact. [3]: 6.2
IC50 [4, 9]: ≥ 10 µM
IC50 [4, 10]: ≥ 10 µM

CC(C)([C@H]1C[C@@H](NC(=O)c2ncc(C(F)(F)F)cn2)C1)S(=O)(=O)c1cccc(C(F)(F)F)c1 [Compound 583]
IC50 [2, 6]: 10 µM
IC50 [3, 7]: 10 µM
IC50 [3, 8]: 1.12 µM
CAv2.2 IC50 Ratio closed/inact. [3]: 8.9
IC50 [4, 9]: ≥ 10 µM

CNC1(CC(=O)N[C@H]2C[C@H](C(C)(C)S(=O)(=O)c3cc(F)cc(C(F)(F)F)c3)C2)CCCCC1 [Compound 659]
IC50 [2, 6]: 10 µM
IC50 [3, 7]: 9.71 µM
IC50 [3, 8]: 1.93 µM
CAv2.2 IC50 Ratio closed/inact. [3]: 5
IC50 [4, 9]: ≥ 10 µM
IC50 [4, 10]: ≥ 10 µM

N[C@H]1CCCC[C@@H]1C(=O)NC[C@H]1C[C@H](S(=O)(=O)c2cc(F)cc(C(F)(F)F)c2)C1 [Compound 712]
IC50 [2, 6]: 10 µM
IC50 [3, 7]: 10 µM
IC50 [3, 8]: 6.02 µM
CAv2.2 IC50 Ratio closed/inact. [3]: 1.7
IC50 [4, 9]: ≥ 10 µM
IC50 [4, 10]: ≥ 10 µM

CC(C)([C@H]1C[C@H](NC(=O)CC2(N)CCCCC2)C1)S(=O)(=O)c1cccc(OC(F)(F)F)c1 [Compound 656]
IC50 [2, 6]: 10 µM
IC50 [3, 7]: 5.52 µM
IC50 [3, 8]: 0.87 µM
CAv2.2 IC50 Ratio closed/inact. [3]: 6.3
IC50 [4, 9]: ≥ 10 µM
IC50 [4, 10]: ≥ 10 µM

CC(C)(C[C@H]1C[C@H](NC(=O)c2ncc(C(F)(F)F)cc2S(C)(=O)=O)C1)S(=O)(=O)c1cccc(C(F)(F)F)c1 [Compound 717]
IC50 [2, 5]: ≥ 10 µM
IC50 [2, 6]: 9.98 µM
CAv3.2 IC50 Ratio closed/inact. [2]: 1
IC50 [3, 7]: 8.63 µM
IC50 [3, 8]: 0.49 µM
CAv2.2 IC50 Ratio closed/inact. [3]: 17.6
IC50 [4, 9]: ≥ 10 µM
IC50 [4, 10]: ≥ 10 µM

N[C@H]1CCCCC1C(=O)NC[C@H]1C[C@H](S(=O)(=O)c2cccc(OC(F)(F)F)c2)C1 (some centres unmarked) [Compound 709]
IC50 [2, 5]: ≥ 10 µM
IC50 [2, 6]: 10 µM
CAv3.2 IC50 Ratio closed/inact. [2]: 1
IC50 [3, 7]: 7.5 µM
IC50 [3, 8]: 2.34 µM
CAv2.2 IC50 Ratio closed/inact. [3]: 3.2
IC50 [4, 9]: ≥ 10 µM

O=C(NC[C@H]1C[C@H](S(=O)(=O)c2cccc(OC(F)(F)F)c2)C1)c1ccnc(C(F)(F)F)n1 [Compound 697]
IC50 [2, 5]: ≥ 10 µM
IC50 [2, 6]: 8.91 µM
CAv3.2 IC50 Ratio closed/inact. [2]: 1.1
IC50 [3, 7]: 3.78 µM
IC50 [3, 8]: 0.71 µM
CAv2.2 IC50 Ratio closed/inact. [3]: 5.3
IC50 [4, 9]: ≥ 10 µM
IC50 [4, 10]: ≥ 10 µM

CC(C)(C[C@H]1C[C@@H](NC(=O)CC2(N)CCCCC2)C1)S(=O)(=O)c1cccc(C(F)(F)F)c1 [Compound 739]
IC50 [2, 5]: ≥ 10 µM
IC50 [2, 6]: 10 µM
CAv3.2 IC50 Ratio closed/inact. [2]: 1
IC50 [3, 7]: 2.89 µM
IC50 [3, 8]: 1 µM
CAv2.2 IC50 Ratio closed/inact. [3]: 2.9
IC50 [4, 9]: 8.86 µM
IC50 [4, 10]: ≥ 10 µM
CAv1.2 IC50 Ratio closed/inact. ([4]; ratio closed/inactivated IC50): 0.9

NC1(CC(=O)NC[C@H]2C[C@H](S(=O)(=O)c3cc(F)cc(C(F)(F)F)c3)C2)CCCCC1 [Compound 708]
IC50 [2, 6]: 10 µM
IC50 [3, 7]: 7.67 µM
IC50 [3, 8]: 3.03 µM
CAv2.2 IC50 Ratio closed/inact. [3]: 2.5
IC50 [4, 9]: ≥ 10 µM
IC50 [4, 10]: ≥ 10 µM
